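Exposure lasted 48 hours, with cells grown in 96-well plates and compounds tested at five concentrations. Abbreviation: GI50, concentration required for 50% inhibition of growth.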 The source made the active and inactive calls. Cut-off read from the data, not from the text of the source: active = GI50 up to about 1.1 µM and inactive = higher.
Experiments:
Assay in all cases: inhibition of tumour cell growth, NCI panel, 48 h
SNB-19 = test system: SNB-19
HCC 2998 = test system: HCC 2998
HT-29 = test system: HT-29
SN12C = test system: SN12C
OVCAR-5 = test system: OVCAR-5
Hs-578T = test system: Hs-578T
COLO 205 = test system: COLO 205
CCRF-CEM = test system: CCRF-CEM
NCI/ADR-RES = test system: NCI/ADR-RES
MDA-N = test system: MDA-N
RXF 393 = test system: RXF 393
HOP-62 = test system: HOP-62
SK-MEL-5 = test system: SK-MEL-5
M14 = test system: M14
Malme-3M = test system: Malme-3M
UO-31 = test system: UO-31
SW-620 = test system: SW-620
KM12 = test system: KM12
HOP-92 = test system: HOP-92

Row | SMILES | GI50 (SNB-19) | GI50 (HCC 2998) | GI50 (HT-29) | GI50 (SN12C) | GI50 (OVCAR-5) | GI50 (Hs-578T) | GI50 (COLO 205) | GI50 (CCRF-CEM) | GI50 (NCI/ADR-RES) | GI50 (MDA-N) | GI50 (RXF 393) | GI50 (HOP-62) | GI50 (SK-MEL-5) | GI50 (M14) | GI50 (Malme-3M) | GI50 (UO-31) | GI50 (SW-620) | GI50 (KM12) | GI50 (HOP-92)
1 | Clc1c(Cl)c(Cl)c2nn(C3CCCO3)nc2c1Cl (stereo not drawn) | 26.7 µM (inactive) | 91 µM (inactive) | 49.1 µM (inactive) | 46.5 µM (inactive) | > 100 µM (inactive) | 11.7 µM (inactive) | 55.6 µM (inactive) | 82.2 µM (inactive) | 42.8 µM (inactive) | 30.5 µM (inactive) | > 100 µM (inactive) | 28.1 µM (inactive) | 25.5 µM (inactive) | > 100 µM (inactive) | 39.4 µM (inactive) |  |  |  | 
2 | C/C(=N\Nc1nc2ccccc2o1)c1ccc2ccccc2n1 | 8.26 µM (inactive) |  | 1.89 µM (inactive) | 3.42 µM (inactive) | 2.93 µM (inactive) | 27.4 µM (inactive) | 3.85 µM (inactive) | 2.04 µM (inactive) | 3.22 µM (inactive) | 6.49 µM (inactive) | 18.5 µM (inactive) | 4.53 µM (inactive) | 3.15 µM (inactive) | 2.57 µM (inactive) | 4.21 µM (inactive) | 2.09 µM (inactive) | 4.07 µM (inactive) | 3.48 µM (inactive) | 
3 | O=C(O)CN(CC(=O)O)C1CCCCC1N1CC(=O)OC(=O)C1 (stereo not drawn) | > 100 µM (inactive) | 74.3 µM (inactive) | 38.4 µM (inactive) | > 100 µM (inactive) | > 100 µM (inactive) | 47.1 µM (inactive) | > 100 µM (inactive) | > 100 µM (inactive) | > 100 µM (inactive) | > 100 µM (inactive) |  | > 100 µM (inactive) | > 100 µM (inactive) | > 100 µM (inactive) | 10.3 µM (inactive) | > 100 µM (inactive) | 42.6 µM (inactive) | > 100 µM (inactive) | > 100 µM (inactive)
4 | CC1(C)OCC2OC3(c4nc(C#N)c(N)o4)OC(C)(C)OC3C2O1 (stereo not drawn) | > 100 µM (inactive) | > 100 µM (inactive) | > 100 µM (inactive) | > 100 µM (inactive) | > 100 µM (inactive) | > 100 µM (inactive) | > 100 µM (inactive) | > 100 µM (inactive) | > 100 µM (inactive) | > 100 µM (inactive) |  | > 100 µM (inactive) | > 100 µM (inactive) | > 100 µM (inactive) | > 100 µM (inactive) | > 100 µM (inactive) | > 100 µM (inactive) | > 100 µM (inactive) | > 100 µM (inactive)
5 | S=C(c1c[nH]c2ccccc12)N1CCCCC1 | > 100 µM (inactive) |  | > 100 µM (inactive) | > 100 µM (inactive) | > 100 µM (inactive) | > 100 µM (inactive) | > 100 µM (inactive) | 89.9 µM (inactive) | 66.5 µM (inactive) | > 100 µM (inactive) | 62.5 µM (inactive) | > 100 µM (inactive) | 40 µM (inactive) | > 100 µM (inactive) | > 100 µM (inactive) |  | > 100 µM (inactive) | > 100 µM (inactive) | 
6 | Cc1cnc2c(c1)C(=O)N(c1ccc([N+](=O)[O-])cc1)S2(=O)=O | 56.2 µM (inactive) | > 100 µM (inactive) | > 100 µM (inactive) | > 100 µM (inactive) | > 100 µM (inactive) | 38.1 µM (inactive) | > 100 µM (inactive) | 82.4 µM (inactive) | 74.3 µM (inactive) | 93.5 µM (inactive) |  | > 100 µM (inactive) | 71.3 µM (inactive) | > 100 µM (inactive) | 22.4 µM (inactive) | > 100 µM (inactive) | 58.7 µM (inactive) | > 100 µM (inactive) | > 100 µM (inactive)
7 | CC(C)CC(N)C(=O)Nc1ccc2ccccc2c1 (stereo not drawn) | > 100 µM (inactive) | > 100 µM (inactive) | > 100 µM (inactive) | > 100 µM (inactive) | > 100 µM (inactive) | > 100 µM (inactive) | > 100 µM (inactive) | > 100 µM (inactive) | > 100 µM (inactive) | > 100 µM (inactive) | > 100 µM (inactive) | > 100 µM (inactive) | > 100 µM (inactive) | > 100 µM (inactive) | > 100 µM (inactive) | > 100 µM (inactive) | > 100 µM (inactive) | 0.316 µM (active) | 
8 | CC1(C)OC(C(C)(C)O)C(C(C)(C)O)O1 (stereo not drawn) | > 100 µM (inactive) | > 100 µM (inactive) | > 100 µM (inactive) | > 100 µM (inactive) | > 100 µM (inactive) | > 100 µM (inactive) | > 100 µM (inactive) | > 100 µM (inactive) | > 100 µM (inactive) | > 100 µM (inactive) | 39 µM (inactive) | > 100 µM (inactive) | > 100 µM (inactive) | > 100 µM (inactive) | > 100 µM (inactive) | > 100 µM (inactive) | > 100 µM (inactive) | > 100 µM (inactive) | 
